US9127255B2, “3-dimensional scaffolds for improved differentiation of pluripotent stem cells to hepatocytes” (Takara Bio Europe AB, priority 2010, dated 2015)

Tested on: CYP2C9
Experiment: CYP2C9 activity and induction in cells cultured in Alvatex (ReInnervate) scaffolds, OH-Diclophenac by HPLC
Assay type: cell-based, human
Details: cells cultured on 3D surfaces (FIG. 8)
Description: Cell line SA461 (Cellartis AB) was cultured and differentiated according to conditions in Examples 1 and 2, experiment 083 and then according to the scheme below: Cells were induced with 1 mM Phenobarbital, 10 μM dexamethasone and 5 μM β-naphthoflavone. To each well, either induction or control medium was added (400 ul/well 2D cultures, 2000 ul/well in […] scaffolds) and the plate was incubated 24 h. After 24 hours of induction, all wells were washed 2× in DPBS+/+ and activity assay medium was added, 200 ul/well in 2D controls and 1000 ul/well in ReInnervate scaffolds. […] After 16 hours incubation at 37 C, the medium was transferred to eppendorf tubes and spun down for 20 min at 4° C. and 10000 g. […] Figures show CYP response in hESC-derived hepatocytes cultured either on […]) or 2D control, cells induced with Diclofenac to mimic hepatic liver activity. Activity assay performed at day 23 and day 29 as indicated.

SMILES: O=C(O)Cc1ccccc1Nc1c(Cl)cccc1Cl [diclophenac]
- CYP2C9 activity when cells were treated: elevated
